Where a name gives a salt, the structure may show the parent alone.
Experiments:
[1] = Thermal stability test at 105° C., impurity content and color change; format: physicochemical; conditions: for Impurity content (%), 3 hours / Color change, 3 hours / Impurity content (%), 48 hours / Color change, 48 hours: dryer at 105° C.; for Color change, 3 hours / Color change, 48 hours: macroscopic observation; for Color change, Initial / Impurity content (%), Initial: thermal stability test
Procedure: The following Table 6 and Table 7 show the thermal stability test result for dihydrochloride salt (2HCl), gentisate, maleate, citrate, fumarate and hemitartrate salts of SK-3530. Each salt was placed on a Petri dish and kept in a dryer at 105° C. Following macroscopic observation at 3 hours and 48 hours later, the content of impurities was measured with liquid chromatography.

[2] = Water and atmospheric (storage) stability: total impurities by liquid chromatography after storage; format: physicochemical
Procedure: This test is for confirming the storage stability of SK-3530 salt.
A sufficient stability is required to process a drug into a particular medication form. For instance, preparation into tablet or capsule requires atmospheric stability and preparation into injection may require water stability.
The following Table 1 (25° C., 75% humidity), Table 2 (40° C., 60% humidity) and Table 3 (50° C., 75% humidity) show the content of total impurities measured by liquid chromatography after storing dihydrochloride (2HCl), gentisate, maleate, citrate, fumarate and hemitartrate salts of SK-3530 for 1 week and 3 weeks.

[3] = Hygroscopicity; format: physicochemical; conditions: statement in words, no test described
[4] = Photostability test (UV and visible light), impurity content and color change; format: physicochemical; conditions: for Color change, Initial / Impurity content (%), Initial: photostability test; for Color change, UV / Impurity content (%), UV: total UV radiation 200 W·h/m^2; for Color change, UV / Impurity content (%), UV / Color change, Visible / Impurity content (%), Visible: 25° C., 60% humidity; for Impurity content (%), UV / Impurity content (%), Visible: Petri dish; for Color change, Visible / Impurity content (%), Visible: total visible light radiation 1080 klux/m^2h
Procedure: The following Table 4 and Table 5 show the photostability test result for dihydrochloride salt (2HCl), gentisate, maleate, citrate, fumarate and hemitartrate salts of SK-3530. The total ultraviolet (UV) radiation was 200 W·h/m^2 and the total visible light radiation was 1080 klux/m^2h. Each salt was kept on a Petri dish under the condition of 25° C. and 60% humidity.

[5] = Solubility; format: physicochemical; conditions: statement in words, no test described
[6] = target: PDE-5 (Homo sapiens, UniProt O76074); conditions: statement in words; cited from earlier work

Row | Structure (SMILES) | Impurity content (%), 3 hours [1] [%] | Color change, 3 hours [1] | Impurity content (%), 48 hours [1] [%] | Color change, 48 hours [1] | Color change, Initial [1] | Impurity content (%), Initial [1] [%] | Impurity content (%) at 25° C., 75% humidity, 1 week [2] [%] | Impurity content (%) at 25° C., 75% humidity, 3 weeks [2] [%] | Impurity content (%) at 25° C., 75% humidity, Initial [2] [%] | Impurity content (%) at 40° C., 60% humidity, 1 week [2] [%] | Impurity content (%) at 40° C., 60% humidity, 3 weeks [2] [%] | Impurity content (%) at 40° C., 60% humidity, Initial [2] [%] | Impurity content (%) at 50° C., 75% humidity, 1 week [2] [%] | Impurity content (%) at 50° C., 75% humidity, 3 weeks [2] [%] | Impurity content (%) at 50° C., 75% humidity, Initial [2] [%] | Hygroscopicity [3] | Color change, Initial [4] | Impurity content (%), Initial [4] [%] | Color change, UV [4] | Impurity content (%), UV [4] [%] | other results
1 | CCCOc1ccc(S(=O)(=O)N2CCN(CCO)CC2)cc1-c1nc2c(CCC)cn(CC)c2c(=O)[nH]1.Cl.Cl [SK-3530 dihydrochloride salt, reference compound] | 3.06 | White | 14.37 | Yellow | White | 0.20 | 0.24 | 0.31 | 0.20 | 0.24 | 0.38 | 0.20 | 0.27 | 0.42 | 0.20 | hygroscopic | White | 0.20 | Brown | 5.92 | Color change, Visible [4]: Yellow; Impurity content (%), Visible [4]: 1.37%; Solubility [5]: good solubility
2 | CCCOc1ccc(S(=O)(=O)N2CCN(CCO)CC2)cc1-c1nc2c(CCC)cn(CC)c2c(=O)[nH]1 [SK-3530 maleate salt] | 0.15 | White | 0.74 | White | White | 0.12 | 0.12 | 0.12 | 0.12 | 0.12 | 0.12 | 0.12 | 0.15 | 0.19 | 0.12 | non-hygroscopic | White | 0.12 | White | 0.35 | Thermal stability compared with the SK-3530 dihydrochloride salt ([1]; summary of Tables 6 and 7): much superior; Storage stability compared with the SK-3530 dihydrochloride salt ([2]; summary of Tables 1 to 3): much superior; Photostability against UV and visible light compared with the SK-3530 dihydrochloride salt ([4]; summary of Tables 4 and 5): much superior; Color change, Visible [4]: White; Impurity content (%), Visible [4]: 0.14%
3 | CCCOc1ccc(S(=O)(=O)N2CCN(CCO)CC2)cc1-c1nc2c(CCC)cn(CC)c2c(=O)[nH]1 [SK-3530, 5-ethyl-2-{5-[4-(2-hydroxyethyl)piperazin-1-ylsulfonyl]-2-n-propoxyphenyl}-7-n-propyl-I-3,5-dihydro-4H-pyrrolo[3,2-d]pyrimidin-4-one] | – | – | – | – | – | – | – | – | – | – | – | – | – | – | – | – | – | – | – | – | Selectivity for PDE-5 over other PDEs [6]: excellent selective inhibitor
